According to US8859573B2, “Pyrimidinone and pyridinone compounds for use in the treatment of diseases or conditions mediated by Lp-PLA2” (Glaxo Group Limited, priority 2010, dated 2014):
Where a name gives a salt, the structure may show the parent alone.

Key:
[1] = molecular target: T1, recombinant human Lp-PLA2 (Homo sapiens, UniProt Q13093); assay: Recombinant human Lp-PLA2 assay (rhLp-PLA2, PED6 assay); assay type: biochemical; conditions: upper limit for pIC50 in this assay is 9.3
T1 sequence (Q13093 22-441): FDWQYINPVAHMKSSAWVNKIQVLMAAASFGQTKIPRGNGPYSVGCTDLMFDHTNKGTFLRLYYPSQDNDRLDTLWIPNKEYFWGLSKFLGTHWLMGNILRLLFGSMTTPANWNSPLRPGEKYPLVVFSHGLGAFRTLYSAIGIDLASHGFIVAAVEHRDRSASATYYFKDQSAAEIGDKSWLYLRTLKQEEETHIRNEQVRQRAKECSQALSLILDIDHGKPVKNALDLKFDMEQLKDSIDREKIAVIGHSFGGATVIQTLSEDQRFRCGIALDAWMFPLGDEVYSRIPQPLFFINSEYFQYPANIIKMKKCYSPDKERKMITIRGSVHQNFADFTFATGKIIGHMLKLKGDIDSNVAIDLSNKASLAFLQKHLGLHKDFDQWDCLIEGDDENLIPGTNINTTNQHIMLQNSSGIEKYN
Text: (1) Recombinant Human Lp-PLA2 Assay (rhLp-PLA2) (Also Referred to as “PED6” Assay)
N-((6-(2,4-dinitrophenyl)amino)-hexanoyl)-2-(4,4-difluoro-5,7-dimethyl-4-bora-3a,4a-diaza-s-indacene-3-pentanoyl)-1-hexadecanoyl-sn-glycero-3-phosphoethanolamine, triethylammonium salt (PED6) is a commercially available fluorescently-labelled phospholipid, which is commercially available from Molecular Probes. There is a quenching para-nitro phenyl (PNP) group in the sn3 position and a Bodipy fluorescein (FL) group in the sn2 position. Upon cleavage with Lp-PLA2, the Bodipy F1 group is liberated and then may result in an increase in fluorescence. Inhibitors of Lp-PLA2 therefore prevent this cleavage and no fluorescent increase is observed.
The PED6 assay was run as an […] 10 μL assay. Compounds source plate was prepared by making 1:3 (by volume) serial dilution of the compounds into pure DMSO on 384-well microplate. Then, 0.01 μL of compounds on compound source plate were transferred into 384 well Greiner 784076 (black) plates by ECHO liquid dispenser. 5 μL of recombinant human Lp-PLA2 enzyme (2 nM rhLp-PLA2 in assay buffer of 50 mM HEPES, pH7.4, 150 mM NaCl, 1 mM CHAPS) was added to each well of the plate with compounds. Plates were centrifuged for 10 sec at 500 rpm. After 30 minutes preincubation, […] substrate (4 μM PED6 [from 5 mM DMSO stock] in assay buffer of 50 mM HEPES, pH7.4, 150 mM NaCl, 1 mM CHAPS) was added to 384 well Greiner 784076 (black) plates. Plates were centrifuged for 10 sec at 500 rpm. Plate was covered to protect from light and incubated for 20 min at room temperature. Plates were read for fluorescence intensity at ex: 480/em: 540 using ViewLux microplate imager. PIC50 data, curve and QC analysis was conducted by using XL fit module in Excel.

Lp-PLA2 from plasma = molecular target: T2, Lp-PLA2 from plasma (Homo sapiens, UniProt Q13093); assay: Lp-PLA2 human plasma assay (Thio-PAF assay); assay type: biochemical; conditions: pooled human plasma; read-out: pIC50 values in the thio-PAF assay (converted)
T2 construct: from tissue; host or cells: pooled human plasma
T2 sequence (Q13093 22-441): T1 sequence (Q13093 22-441)
Text: (3) Lipoprotein-Associated Phospholipase A2 (Lp-PLA2) Human Plasma Assay (Also Referred to as “Thio-PAF Assay”)
The human plasma assay utilizes a thioester analog of PAF (phosphatidylcholine), where hydrolysis yields to the formation of a phospholipid containing a free thiol group. The amount of thiol is quantitated continuously by reacting with CPM (7-diethylamino-3-(4′-maleimidylphenyl)-4-methylcoumarin), a maleimide which increases in fluoresence after Michael addition of thiols. This assay may detect the activity of Lp-PLA2 from plasma, as determined by specific inhibition by Lp-PLA2 inhibitors.
The thio-PAF assay was run as a quenched 15 μL assay. Compounds source plate was prepared by making 1:3 (by volume) serial dilution of the compounds into pure DMSO on 384-well microplate. 0.01 μL of compounds on compound source plate were transferred to 384 well Greiner 784076 (black) low-volume plates by ECHO liquid dispenser. 8 μL pooled human plasma, which was previously aliquoted and frozen, was added. Plates were centrifuged for 10 sec at 500 rpm. After 30 minutes preincubation, 2 μL of substrate (2.5 mM thio-PAF, 3.2 mM NEM (N-ethylmaleimide) [made fresh daily in DMSO], and 32 μM CPM [from a DMSO stock] in assay buffer of 50 mM HEPES, pH7.4, 150 mM NaCl, 1 mM CHAPS was added to 384 well Greiner 784076 (black) low-volume plates by BRAVO liquid handling station. Plates were centrifuged for 10 sec at 500 rpm. Plate was covered to protect from light and incubated for 2 min at room temperature. Reaction was quenched with 5 μL of 5% aqueous trifluoroacetic acid (TFA). Plates were covered to protect from light and incubated for 40 min at room temperature. Plates were read at ex: 380/em: 485 using-Envision microplate reader. PIC50 data, curve and QC analysis was conducted by using XLFit module in Excel.

| Compound | IC50 [1] [nM] | IC50 (Lp-PLA2 from plasma) [nM] |
| --- | --- | --- |
| O=c1nc(OCCc2ccc(Oc3ccc(Cl)c(C(F)(F)F)c3)cc2)ccn1Cc1cncnc1 [Example 11, 4-{[2-(4-{[4-Chloro-3-(trifluoromethyl)phenyl]oxy}phenyl)ethyl]oxy}-1-(5-pyrimidinylmethyl)-2(1H)-pyrimidinone] | ≤ 1 | ≤ 100 |
| Cn1cc(Cn2cc(F)c(OCCc3ccc(Oc4ccc(C(F)(F)F)nc4)c(F)c3)nc2=O)cn1 [Example 41, 5-fluoro-4-(3-fluoro-4-((6-(trifluoromethyl)pyridin-3-yl)oxy)phenethoxy)-1-((1-methyl-1H-pyrazol-4-yl)methyl)pyrimidin-2(1H)-one] | ≤ 1 | ≤ 100 |
| O=c1nc(OCCc2ccc(Oc3ccc(Cl)c(C(F)(F)F)c3)cc2)ccn1Cc1ccncc1 [Example 9, 4-{[2-(4-{[4-Chloro-3-(trifluoromethyl)phenyl]oxy}phenyl)ethyl]oxy}-1-(4-pyridinylmethyl)-2(1H)-pyrimidinone] | ≤ 1 | ≤ 100 |
| Cn1cc(Cn2cc(Cl)c(OCCc3cnc(Oc4ccc(Cl)c(C(F)(F)F)c4)c(F)c3)nc2=O)cn1 [Example 31, 5-Chloro-4-(2-(6-(4-chloro-3-(trifluoromethyl)phenoxy)-5-fluoropyridin-3-yl)ethoxy)-1-((1-methyl-1H-pyrazol-4-yl)methyl)pyrimidin-2(1H)-one] | ≤ 1 | ≤ 100 |
| Cn1cc(Cn2ccc(OCc3cnc(Oc4ccc(Cl)c(C(F)(F)F)c4)c(F)c3)nc2=O)cn1 [Example 17, 4-{[(6-{[4-Chloro-3-(trifluoromethyl)phenyl]oxy}-5-fluoro-3-pyridinyl)methyl]oxy}-1-[(1-methyl-1H-pyrazol-4-yl)methyl]-2 (1H)-pyrimidinone] | ≤ 1 | ≤ 100 |
| Cn1cc(Cn2ccc(OCc3ccc(Oc4ccc(Cl)c(C(F)(F)F)c4)cc3)nc2=O)cn1 [Example 8, 4-{[(4-{[4-Chloro-3-(trifluoromethyl)phenyl]oxy}phenyl)methyl]oxy}-1-[(1-methyl-1H-pyrazol-4-yl)methyl]-2(1H)-pyrimidinone] | ≤ 1 | ≤ 100 |
| Cc1ccc(Oc2ccc(COc3ccn(Cc4cnn(C)c4)c(=O)c3)cc2)cc1F [Example 28, 4-[({4-[(3-Fluoro-4-methylphenyl)oxy]phenyl}methyl)oxy]-1-[(1-methyl-1H-pyrazol-4-yl)methyl]-2(1H)-pyridinone] | > 10 | – |
| O=c1cc(OCc2ccc(Oc3ccc(Cl)c(C(F)(F)F)c3)cc2)ccn1Cc1cncnc1 [Example 26, 4-{[(4-{[4-Chloro-3-(trifluoromethyl)phenyl]oxy}phenyl)methyl]oxy}-1-(5-pyrimidinylmethyl)-2(1H)-pyridinone] | > 10 | – |
| Cn1cc(Cn2ccc(OCc3ccc(Oc4cccc(C(F)(F)F)c4)cc3)cc2=O)cn1 [Example 25, 1-[(1-Methyl-1H-pyrazol-4-yl)methyl]-4-{[(4-{[3-(trifluoromethyl)phenyl]oxy}-phenyl)methyl]oxy}-2(1H)-pyridinone] | > 10 | – |
| Cn1cc(Cn2cc(Cl)c(OCCc3ccc(Oc4ccc(Cl)c(C(F)(F)F)c4)cc3)nc2=O)cn1 [Example 30, 5-chloro-4-{[2-(4-{[4-Chloro-3-(trifluoromethyl)phenyl]oxy}phenyl)ethyl]oxy}-1-[(1-methyl-1H-pyrazol-4-yl)methyl]-2(1H)-pyrimidinone] | – | ≤ 100 |
| Cn1cc(Cn2ccc(OCc3ccc(Oc4ccc(Cl)c(C(F)(F)F)c4)cn3)nc2=O)cn1 [Example 15, 4-{[(5-{[4-Chloro-3-(trifluoromethyl)phenyl]oxy}-2-pyridinyl)methyl]oxy}-1-[(1-methyl-1H-pyrazol-4-yl)methyl]-2(1H)-pyrimidinone] | – | ≤ 100 |

Other lines, results leading:

| IC50 [1] [nM] | IC50 (Lp-PLA2 from plasma) [nM] | Compound |
| --- | --- | --- |
| > 10 | – | CCn1cc(F)c(OCCc2ccc(Oc3cccc(C(F)(F)F)n3)cc2)nc1=O [Example 63, 1-ethyl-5-fluoro-4-(4-((6-(trifluoromethyl)pyridin-2-yl)oxy)phenethoxy)pyrimidin-2(1H)-one, trifluoroacetic acid salt] |
| ≤ 1 | ≤ 100 | Cn1cc(Cn2cc(Cl)c(OCc3ccc(Oc4ccc(F)c(F)c4)c(F)c3)nc2=O)cn1 [Example 53, 5-chloro-4-((4-(3,4-difluorophenoxy)-3-fluorobenzyl)oxy)-1-((1-methyl-1H-pyrazol-4-yl)methyl)pyrimidin-2 (1H)-one] |
| ≤ 1 | ≤ 100 | COc1ncc(Cn2cc(Cl)c(OCCc3ccc(Cc4ccc(Cl)c(C(F)(F)F)c4)cc3)nc2=O)cn1 [Example 45, 5-chloro-4-(4-(4-chloro-3-(trifluoromethyl)benzyl)phenethoxy)-1-((2-methoxypyrimidin-5-yl)methyl)pyrimidin-2(1H)-one] |
| ≤ 1 | ≤ 100 | Cn1cc(Cn2cc(F)c(OCCc3ccc(Oc4ccc(F)c(F)c4)c(F)c3)nc2=O)cn1 [Example 59, 4-(4-(3,4-difluorophenoxy)-3-fluorophenethoxy)-5-fluoro-1-((1-methyl-1H-pyrazol-4-yl)methyl)pyrimidin-2(1H)-one, trifluoroacetic acid salt] |
| ≤ 1 | ≤ 100 | Cc1cn(Cc2cnn(C)c2)c(=O)nc1OCc1ccc(Oc2cccc(C(F)(F)F)c2)c(C#N)c1 [Example 69, 5-(((5-methyl-1-((1-methyl-1H-pyrazol-4-yl)methyl)-2-oxo-1,2-dihydropyrimidin-4-yl)oxy)methyl)-2-(3-(trifluoromethyl)phenoxy)benzonitrile] |
| > 10 | – | Cc1cccc(Oc2ccc(CCOc3nc(=O)n(Cc4cnn(C)c4)cc3F)cc2)n1 [Example 61, 5-fluoro-1-((1-methyl-1H-pyrazol-4-yl)methyl)-4-(4-((6-methylpyridin-2-yl)oxy)phenethoxy)pyrimidin-2(1H)-one] |
| > 10 | ≤ 1000 | Cc1cn(Cc2cnn(C)c2)c(=O)nc1OCCc1ccc(Oc2ccc(F)c(F)c2)nc1 [Example 67, 4-(2-(6-(3,4-difluorophenoxy)pyridin-3-yl)ethoxy)-5-methyl-1-((1-methyl-1H-pyrazol-4-yl)methyl)pyrimidin-2(1H)-one] |
| > 10 | – | COc1ncc(Cn2cc(F)c(OCCc3ccc(Oc4cccc(C)n4)cc3)nc2=O)cn1 [Example 62, 5-fluoro-1-((2-methoxypyrimidin-5-yl)methyl)-4-(4-((6-methylpyridin-2-yl)oxy)phenethoxy)pyrimidin-2(1H)-one] |
| – | ≤ 100 | Cn1cc(Cn2cc(Cl)c(OCCc3ccc(Cc4ccc(Cl)c(C(F)(F)F)c4)cc3)nc2=O)cn1 [Example 44, 5-chloro-4-(4-(4-chloro-3-(trifluoromethyl)benzyl)phenethoxy)-1-((1-methyl-1H-pyrazol-4-yl)methyl)pyrimidin-2(1H)-one] |
| – | ≤ 1000 | CCn1cc(F)c(OCCc2ccc(Oc3ccc(Cl)c(C(F)(F)F)c3)nc2)nc1=O [Example 52, 4-(2-(6-(4-chloro-3-(trifluoromethyl)phenoxy)pyridin-3-yl)ethoxy)-1-ethyl-5-fluoropyrimidin-2(1H)-one] |
